Experimental data taken from publication PMC12090182, “Repurposing of the RIPK1-Selective Benzo[1,4]oxazepin-4-one Scaffold for the Development of a Type III LIMK1/2 Inhibitor” (ACS Chemical Biology, 2025).

Columns and labels:
[1] = target: EGFR(T790M) (Homo sapiens, UniProt P00533, T790M); experiment: biochemical; type: binding; conditions: compound concentration 100 nM; Entrez EGFR; read-out: Percent Control
[2] = target: EGFR(L858R,T790M) (Homo sapiens, UniProt P00533, L858R/T790M); experiment: biochemical; type: binding; conditions: read-out: Percent Control
[3] = target: KIT(D816H) (Homo sapiens, UniProt P10721, D816H); experiment: biochemical; type: binding; conditions: 1000 nM, read-out: Percent Control
[4] = target: EGFR(G719C) (Homo sapiens, UniProt P00533, G719C); experiment: biochemical; type: binding; conditions: 1000 nM, read-out: Percent Control
[5] = target: ABL1(T315I)-nonphosphorylated (Homo sapiens, UniProt P00519, T315I); experiment: biochemical; type: binding; conditions: read-out: Percent Control
[6] = target: BRAF(V600E) (Homo sapiens, UniProt P15056, V600E); experiment: biochemical; type: binding; conditions: 1000 nM, read-out: Percent Control
[7] = target: EGFR(L747-E749del, A750P) (Homo sapiens, UniProt P00533, A750P/DEL747-749); experiment: biochemical; type: binding; conditions: read-out: Percent Control
[8] = target: CDK17 (Homo sapiens, UniProt Q00537); type: cell-based; conditions: HEK-293T; 1 μM inhibitor, HEK293T cells
Outline: (§1)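 Using transiently transfected HEK293T cells, the inhibitor (1 μM) is tested for displacing Tracer K10 from each expressed kinase after 20 h expression. Luminescence at donor and acceptor wavelengths yields occupancy.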

[9] = target: FES (Homo sapiens, UniProt P07332); type: cell-based; conditions: HEK-293T; 1 μM inhibitor, HEK293T cells
Outline: as §1

[10] = target: STK32B (Homo sapiens, UniProt Q9NY57); type: cell-based; conditions: HEK-293T; 1 μM inhibitor, HEK293T cells
Outline: as §1

[11] = target: MAP3K19 (Homo sapiens, UniProt Q56UN5); type: cell-based; conditions: HEK-293T; 1 μM inhibitor, HEK293T cells
Outline: as §1

[12] = target: CSNK1D (Homo sapiens, UniProt P48730); type: cell-based; conditions: HEK-293T; 1 μM inhibitor, HEK293T cells
Outline: as §1

[13] = target: MAP3K21 (Homo sapiens, UniProt Q5TCX8); type: cell-based; conditions: HEK-293T; 1 μM inhibitor, HEK293T cells
Outline: as §1

[14] = target: MAPK9 (Homo sapiens, UniProt P45984); type: cell-based; conditions: HEK-293T; 1 μM inhibitor, HEK293T cells
Outline: as §1

[15] = target: CSNK1A1L (Homo sapiens, UniProt Q8N752); type: cell-based; conditions: HEK-293T; 1 μM inhibitor, HEK293T cells
Outline: as §1

[16] = target: MAST3 (Homo sapiens, UniProt O60307); type: cell-based; conditions: HEK-293T; 1 μM inhibitor, HEK293T cells
Outline: as §1

[17] = target: CDK15 (Homo sapiens, UniProt Q96Q40); type: cell-based; conditions: HEK-293T; 1 μM inhibitor, HEK293T cells
Outline: as §1

[18] = target: PRKAA2 (Homo sapiens, UniProt P54646); type: cell-based; conditions: HEK-293T; 1 μM inhibitor, HEK293T cells
Outline: as §1

[19] = target: CDK7 (Homo sapiens, UniProt P50613); type: cell-based; conditions: HEK-293T; 1 μM inhibitor, HEK293T cells
Outline: as §1

[20] = target: CDK18 (Homo sapiens, UniProt Q07002); type: cell-based; conditions: HEK-293T; 1 μM inhibitor, HEK293T cells
Outline: as §1

[21] = target: RPS6KA1 (Homo sapiens, UniProt Q15418); type: cell-based; conditions: HEK-293T; 1 μM inhibitor, HEK293T cells
Outline: as §1

[22] = target: MYLK4 (Homo sapiens, UniProt Q86YV6); type: cell-based; conditions: HEK-293T; 1 μM inhibitor, HEK293T cells
Outline: as §1

[23] = target: ERN1 (Homo sapiens, UniProt O75460); type: cell-based; conditions: HEK-293T; 1 μM inhibitor, HEK293T cells
Outline: as §1

[24] = target: EPHB1 (Homo sapiens, UniProt P54762); type: cell-based; conditions: HEK-293T; 1 μM inhibitor, HEK293T cells
Outline: as §1

[25] = target: FGFR3 (Homo sapiens, UniProt P22607); type: cell-based; conditions: HEK-293T; 1 μM inhibitor, HEK293T cells
Outline: as §1

[26] = target: MERTK (Homo sapiens, UniProt Q12866); type: cell-based; conditions: HEK-293T; 1 μM inhibitor, HEK293T cells
Outline: as §1

[27] = target: NEK11 (Homo sapiens, UniProt Q8NG66); type: cell-based; conditions: HEK-293T; 1 μM inhibitor, HEK293T cells
Outline: as §1

[28] = target: STK38 (Homo sapiens, UniProt Q15208); type: cell-based; conditions: HEK-293T; 1 μM inhibitor, HEK293T cells
Outline: as §1

[29] = target: MARK2 (Homo sapiens, UniProt Q7KZI7); type: cell-based; conditions: HEK-293T; 1 μM inhibitor, HEK293T cells
Outline: as §1

[30] = target: PHKG1 (Homo sapiens, UniProt Q16816); type: cell-based; conditions: HEK-293T; 1 μM inhibitor, HEK293T cells
Outline: as §1

[31] = target: NEK3 (Homo sapiens, UniProt P51956); type: cell-based; conditions: HEK-293T; 1 μM inhibitor, HEK293T cells
Outline: as §1

[32] = target: NUAK1 (Homo sapiens, UniProt O60285); type: cell-based; conditions: HEK-293T; 1 μM inhibitor, HEK293T cells
Outline: as §1

[33] = target: ABL1(F317I)-phosphorylated (Homo sapiens, UniProt P00519, F317I); experiment: biochemical; type: binding; conditions: read-out: Percent Control
[34] = target: EGFR(S752-I759del) (Homo sapiens, UniProt P00533, DEL752-759); experiment: biochemical; type: binding; conditions: read-out: Percent Control

Sequence of MERTK (Q12866 21-999): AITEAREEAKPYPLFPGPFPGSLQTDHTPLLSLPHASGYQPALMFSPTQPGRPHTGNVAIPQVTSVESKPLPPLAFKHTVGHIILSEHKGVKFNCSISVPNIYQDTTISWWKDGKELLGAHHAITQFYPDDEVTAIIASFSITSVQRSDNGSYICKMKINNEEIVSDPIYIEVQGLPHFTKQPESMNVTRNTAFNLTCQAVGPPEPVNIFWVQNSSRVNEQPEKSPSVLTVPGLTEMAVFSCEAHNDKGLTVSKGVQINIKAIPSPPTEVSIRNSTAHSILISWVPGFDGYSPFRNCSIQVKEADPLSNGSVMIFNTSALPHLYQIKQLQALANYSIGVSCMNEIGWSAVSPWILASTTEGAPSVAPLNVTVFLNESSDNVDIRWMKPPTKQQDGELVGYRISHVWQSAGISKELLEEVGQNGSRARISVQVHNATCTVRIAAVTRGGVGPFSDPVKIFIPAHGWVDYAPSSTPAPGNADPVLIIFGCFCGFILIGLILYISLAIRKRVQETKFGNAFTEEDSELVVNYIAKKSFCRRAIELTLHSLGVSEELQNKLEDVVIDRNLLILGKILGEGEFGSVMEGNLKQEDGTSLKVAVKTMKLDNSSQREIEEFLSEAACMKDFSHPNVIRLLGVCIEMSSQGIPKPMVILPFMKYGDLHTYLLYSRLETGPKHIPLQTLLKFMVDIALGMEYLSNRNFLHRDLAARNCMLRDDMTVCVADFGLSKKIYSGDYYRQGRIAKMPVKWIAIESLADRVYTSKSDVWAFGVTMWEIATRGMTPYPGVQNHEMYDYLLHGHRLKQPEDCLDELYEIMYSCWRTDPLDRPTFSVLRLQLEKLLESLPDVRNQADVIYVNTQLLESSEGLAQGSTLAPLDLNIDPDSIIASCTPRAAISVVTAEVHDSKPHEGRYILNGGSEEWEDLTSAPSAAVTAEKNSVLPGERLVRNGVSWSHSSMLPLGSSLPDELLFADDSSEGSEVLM
Sequence of CDK18 (Q07002 whole entry): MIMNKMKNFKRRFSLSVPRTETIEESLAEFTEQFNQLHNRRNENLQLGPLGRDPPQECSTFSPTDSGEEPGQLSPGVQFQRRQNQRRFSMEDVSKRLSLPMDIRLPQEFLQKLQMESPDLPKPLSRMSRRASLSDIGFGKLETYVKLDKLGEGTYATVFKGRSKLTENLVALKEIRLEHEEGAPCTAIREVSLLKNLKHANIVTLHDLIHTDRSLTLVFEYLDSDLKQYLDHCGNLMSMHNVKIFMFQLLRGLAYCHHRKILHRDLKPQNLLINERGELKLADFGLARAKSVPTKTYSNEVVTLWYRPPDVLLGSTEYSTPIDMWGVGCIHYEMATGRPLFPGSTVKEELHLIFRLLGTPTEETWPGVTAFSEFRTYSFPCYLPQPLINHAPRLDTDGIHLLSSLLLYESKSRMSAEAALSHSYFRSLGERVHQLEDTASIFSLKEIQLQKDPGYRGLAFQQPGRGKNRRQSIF
Sequence of CDK18 (Q8ND76 whole entry, further chain): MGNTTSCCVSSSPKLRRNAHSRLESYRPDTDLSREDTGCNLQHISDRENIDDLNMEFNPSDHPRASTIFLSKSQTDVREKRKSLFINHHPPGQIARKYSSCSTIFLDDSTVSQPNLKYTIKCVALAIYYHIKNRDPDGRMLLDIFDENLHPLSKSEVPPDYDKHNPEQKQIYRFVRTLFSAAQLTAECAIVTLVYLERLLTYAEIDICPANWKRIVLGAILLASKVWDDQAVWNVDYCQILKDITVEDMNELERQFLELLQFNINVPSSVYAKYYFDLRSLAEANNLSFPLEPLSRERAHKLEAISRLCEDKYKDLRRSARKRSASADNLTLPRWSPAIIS
Sequence of MAP3K21 (Q5TCX8 whole entry): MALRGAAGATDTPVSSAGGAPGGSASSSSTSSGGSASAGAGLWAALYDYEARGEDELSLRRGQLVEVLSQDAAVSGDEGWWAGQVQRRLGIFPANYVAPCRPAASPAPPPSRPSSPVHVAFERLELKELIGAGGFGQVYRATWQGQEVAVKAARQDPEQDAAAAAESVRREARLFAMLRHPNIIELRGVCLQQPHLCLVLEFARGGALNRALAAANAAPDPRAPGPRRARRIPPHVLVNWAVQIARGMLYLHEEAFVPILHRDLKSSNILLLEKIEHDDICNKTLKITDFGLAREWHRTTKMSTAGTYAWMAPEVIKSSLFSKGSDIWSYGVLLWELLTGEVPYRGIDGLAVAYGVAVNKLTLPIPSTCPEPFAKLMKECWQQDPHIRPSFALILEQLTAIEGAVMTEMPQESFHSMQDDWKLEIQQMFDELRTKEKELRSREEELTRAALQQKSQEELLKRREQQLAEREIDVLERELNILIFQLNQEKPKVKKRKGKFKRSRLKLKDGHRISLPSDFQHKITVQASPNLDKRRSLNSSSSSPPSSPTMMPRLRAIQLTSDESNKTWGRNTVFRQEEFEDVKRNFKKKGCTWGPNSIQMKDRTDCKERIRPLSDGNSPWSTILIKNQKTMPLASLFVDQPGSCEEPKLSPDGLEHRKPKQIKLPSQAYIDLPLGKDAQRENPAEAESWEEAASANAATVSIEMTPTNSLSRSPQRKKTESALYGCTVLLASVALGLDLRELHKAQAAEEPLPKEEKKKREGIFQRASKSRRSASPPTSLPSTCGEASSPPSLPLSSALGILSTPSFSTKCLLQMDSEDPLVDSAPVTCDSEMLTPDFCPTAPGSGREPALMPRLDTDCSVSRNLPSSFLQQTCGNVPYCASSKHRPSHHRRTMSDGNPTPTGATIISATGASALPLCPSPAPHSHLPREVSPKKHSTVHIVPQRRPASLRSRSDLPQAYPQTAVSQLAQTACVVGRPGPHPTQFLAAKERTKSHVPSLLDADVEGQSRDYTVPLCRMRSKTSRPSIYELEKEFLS
Sequence of FES (P07332 whole entry): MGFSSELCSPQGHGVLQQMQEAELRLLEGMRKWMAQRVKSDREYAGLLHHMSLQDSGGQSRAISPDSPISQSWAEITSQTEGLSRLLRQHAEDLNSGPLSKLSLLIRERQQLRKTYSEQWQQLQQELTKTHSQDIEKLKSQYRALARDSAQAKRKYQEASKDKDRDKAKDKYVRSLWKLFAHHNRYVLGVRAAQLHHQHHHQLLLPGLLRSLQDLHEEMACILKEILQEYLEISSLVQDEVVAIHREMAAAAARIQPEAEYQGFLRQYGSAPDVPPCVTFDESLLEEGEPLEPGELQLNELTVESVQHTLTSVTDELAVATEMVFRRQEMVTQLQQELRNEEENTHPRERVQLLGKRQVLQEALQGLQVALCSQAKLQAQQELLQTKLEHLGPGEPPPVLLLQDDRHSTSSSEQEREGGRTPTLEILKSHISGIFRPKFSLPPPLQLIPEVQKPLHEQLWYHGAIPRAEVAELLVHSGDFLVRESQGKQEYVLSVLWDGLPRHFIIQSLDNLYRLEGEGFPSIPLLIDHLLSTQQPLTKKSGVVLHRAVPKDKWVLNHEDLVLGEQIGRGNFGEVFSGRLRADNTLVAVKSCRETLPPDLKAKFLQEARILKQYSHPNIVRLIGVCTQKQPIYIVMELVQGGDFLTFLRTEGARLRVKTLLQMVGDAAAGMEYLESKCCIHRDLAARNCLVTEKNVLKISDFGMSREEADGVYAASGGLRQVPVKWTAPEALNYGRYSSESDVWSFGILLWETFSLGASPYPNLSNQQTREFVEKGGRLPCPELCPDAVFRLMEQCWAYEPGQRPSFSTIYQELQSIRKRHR
Sequence of RPS6KA1 (Q15418 whole entry): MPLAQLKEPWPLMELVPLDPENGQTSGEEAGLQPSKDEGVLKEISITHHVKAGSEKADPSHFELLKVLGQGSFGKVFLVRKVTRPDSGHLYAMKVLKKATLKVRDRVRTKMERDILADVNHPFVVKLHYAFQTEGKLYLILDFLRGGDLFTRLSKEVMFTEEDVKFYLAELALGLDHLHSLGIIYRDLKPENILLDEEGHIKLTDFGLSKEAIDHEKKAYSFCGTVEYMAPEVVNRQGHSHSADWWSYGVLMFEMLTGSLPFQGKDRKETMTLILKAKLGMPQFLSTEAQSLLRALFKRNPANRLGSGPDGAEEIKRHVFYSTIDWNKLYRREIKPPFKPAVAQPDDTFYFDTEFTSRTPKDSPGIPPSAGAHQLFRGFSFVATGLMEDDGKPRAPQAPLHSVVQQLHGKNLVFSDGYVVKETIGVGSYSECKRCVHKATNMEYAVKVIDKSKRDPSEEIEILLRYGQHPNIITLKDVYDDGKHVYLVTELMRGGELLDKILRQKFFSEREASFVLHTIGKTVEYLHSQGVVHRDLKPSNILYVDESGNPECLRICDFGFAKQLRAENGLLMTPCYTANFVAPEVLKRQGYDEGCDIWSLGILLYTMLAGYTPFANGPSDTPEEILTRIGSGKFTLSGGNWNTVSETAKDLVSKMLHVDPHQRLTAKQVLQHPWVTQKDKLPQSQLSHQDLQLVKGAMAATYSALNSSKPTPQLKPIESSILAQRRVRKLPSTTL
Sequence of CDK17 (Q00537 whole entry): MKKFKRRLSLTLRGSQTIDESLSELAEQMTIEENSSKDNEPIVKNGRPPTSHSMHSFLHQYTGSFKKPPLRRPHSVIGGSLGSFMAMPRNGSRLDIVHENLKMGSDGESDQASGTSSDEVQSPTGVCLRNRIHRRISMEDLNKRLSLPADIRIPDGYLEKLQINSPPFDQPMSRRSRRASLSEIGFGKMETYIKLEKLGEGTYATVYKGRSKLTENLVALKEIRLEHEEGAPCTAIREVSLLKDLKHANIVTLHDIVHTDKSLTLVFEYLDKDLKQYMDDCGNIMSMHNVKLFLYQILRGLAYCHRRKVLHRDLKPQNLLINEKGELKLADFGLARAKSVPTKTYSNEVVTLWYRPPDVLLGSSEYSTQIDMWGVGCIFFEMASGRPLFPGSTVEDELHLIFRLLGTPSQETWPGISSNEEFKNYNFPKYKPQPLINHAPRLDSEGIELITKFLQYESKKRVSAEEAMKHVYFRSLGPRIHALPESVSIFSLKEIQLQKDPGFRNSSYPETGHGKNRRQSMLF
Sequence of CDK17 (Q8ND76 whole entry, further chain): as the sequence (Q8ND76 whole entry, further chain) above

For `CN1C(=O)[C@@H](N2CCc3c(nn(Cc4ccccc4)c3C(N)=O)C2=O)COc2cc(Cl)ccc21` [Compound 10, (S)-2-benzyl-6-(8-chloro-5-methyl-4-oxo-2,3,4,5-tetrahydrobenzo[b][1,4]oxazepin-3-yl)-7-oxo-4,5,6,7-tetrahydro-2H-pyrazolo[3,4-c]pyridine-3-carboxamide], the remaining activity at 0.1 µM [1] was 100%, the remaining activity at 1 µM [2] was 100% and the remaining activity at 1 µM [3] was 97%. For the same molecule, the remaining activity at 1 µM [4] was 86%, the remaining activity at 1 µM [5] was 73% and the remaining activity at 1 µM [6] was 100%. It also gave a remaining activity at 1 µM [7] of 100%, a receptor occupancy at 1 µM [8] of 4.13% and a receptor occupancy at 1 µM [9] of 3.15%. It also gave a receptor occupancy at 1 µM [10] of -4.21%, a receptor occupancy at 1 µM [11] of 10.7% and a receptor occupancy at 1 µM [12] of 0.69%. The receptor occupancy at 1 µM [13] was -2.72%, the receptor occupancy at 1 µM [14] was -2.07% and the receptor occupancy at 1 µM [15] was 10.7%. It also gave a receptor occupancy at 1 µM [16] of 3.64%, a receptor occupancy at 1 µM [17] of -12.8% and a receptor occupancy at 1 µM [18] of 2.71%. The receptor occupancy at 1 µM [19] was -11.3%, the receptor occupancy at 1 µM [20] was -5.62% and the receptor occupancy at 1 µM [21] was 5.2%. For the same molecule, the receptor occupancy at 1 µM [22] was -2.91%, the receptor occupancy at 1 µM [23] was -1.52% and the receptor occupancy at 1 µM [24] was 0.755%. For the same molecule, the receptor occupancy at 1 µM [25] was 22.5%, the receptor occupancy at 1 µM [26] was 0.31% and the receptor occupancy at 1 µM [27] was 10.1%. For the same molecule, the receptor occupancy at 1 µM [28] was 4.93%, the receptor occupancy at 1 µM [29] was 16.3% and the receptor occupancy at 1 µM [30] was -0.896%. The receptor occupancy at 1 µM [31] was -12%, the receptor occupancy at 1 µM [32] was -4.45% and the remaining activity at 1 µM [33] was 100%. The remaining activity at 1 µM [34] was 89%.
